# Laboratory results as given in patent US9635854B2, “Controlling red rice with mesotrione” (FMC Corporation, priority 2014, dated 2017).
# Read-outs that look alike come from different tables or passages of the source.
# Tests used:
# [1] = tested on: Rice (Oryza sativa) 'Cybonee'; conditions: PRE, direct-seeded flooded rice
# Protocol: (§1) Rice (Oryza sativa) crop varieties (‘Cybonee’, ‘Jupiter’, and ‘Taggart’) and red rice (Oryza sativa) were planted in 6 inch plastic pots containing sterile top soil. Eight to ten seeds of each species were seeded at 12 o'clock, 3 o'clock, 6 o'clock or 9 o'clock around the pot. The pots were watered after planting. […] The test solutions were applied using a compressed air track spray chamber at 30 gallons per acre using a Teejet 8001E nozzle at 40 PSI, three replicates per test rate. After treatment, the pots were watered lightly and transferred to trays in a greenhouse. After the plants were two inches in height the trays were flooded with water and maintained as such for 14 days. The trays were emptied of water and the pots were maintained by regular watering for 4 more days. At 14, 21 and 28 days after treatment (DAT) the plants were evaluated versus untreated control pots containing the same rice and weeds using a scale of 0% (no control) to 100% (complete plant death).
# [2] = tested on: Rice (Oryza sativa) 'Jupiter'; conditions: PRE, direct-seeded flooded rice
# Protocol: as §1
# [3] = tested on: Rice (Oryza sativa) 'Taggart'; conditions: PRE, direct-seeded flooded rice
# Protocol: as §1
# red rice (Oryza sativa) = test: Pre-emergent evaluation on flooded rice, red rice control; type: in vivo; conditions: PRE, direct-seeded flooded rice
# Protocol: as §1
# rice (Taggart variety) = test: Pre-emergent weed control in direct-seeded flooded rice (Example 2), rice injury; type: in vivo; conditions: for % Rice Injury Rice Taggert: pre-emergent, flooded, 28 Days After Treatment
# Excerpt: (§2) Seeds of crops, rice (Taggart and Wells varieties) and weeds, yellow nutsedge (Cyperus esculentus), barnyardgrass (Echinochloa crus-galli), large crabgrass (Digitaria sanguinalis), hemp sesbania (Sesbania herbacea), Benghal dayflower (Commelina benghalensis), red rice (Oryza sativa) and broadleaf signalgrass (Urochloa platyphylla) were planted in two gallon pots containing top soil. Each pot was watered well before the application of mesotrione (Callisto® Herbicide from Syngenta Crop Protection).
# rice (Wells variety) = test: as above; type: in vivo; conditions: for % Rice Injury Rice Wells: pre-emergent, flooded, 28 Days After Treatment
# Excerpt: as §2
# large crabgrass = test: Direct seeded dryland rice test, pre-emergent (FIG. 2); type: in vivo; conditions: pre-emergent treatment at 25 g ai/ha
structure (smiles),measurement,setting,value
"CS(=O)(=O)c1ccc(C(=O)C2C(=O)CCCC2=O)c([N+](=O)[O-])c1 [Mesotrione, mesotrione]",Percent rice injury Cybonet,"[1]; 14 DAT, 12.5 g ai/ha",2 B %
same,Percent rice injury Cybonet,"[1]; 14 DAT, 25 g ai/ha",0 B %
same,Percent rice injury Cybonet,"[1]; 14 DAT, 37.5 g ai/ha",3 B %
same,Percent rice injury Cybonet,"[1]; 14 DAT, 50 g ai/ha",4 B %
same,Percent rice injury Cybonet,"[1]; 14 DAT, 62.5 g ai/ha",11 B %
same,Percent rice injury Cybonet,"[1]; 14 DAT, 75 g ai/ha",9 B %
same,Percent rice injury Cybonet,"[1]; 14 DAT, 87.5 g ai/ha",12 B %
same,Percent rice injury Cybonet,"[1]; 14 DAT, 100 g ai/ha",11 B %
same,Percent rice injury Cybonet,"[1]; 21 DAT, 12.5 g ai/ha",1 C %
same,Percent rice injury Cybonet,"[1]; 21 DAT, 25 g ai/ha",4 C %
same,Percent rice injury Cybonet,"[1]; 21 DAT, 37.5 g ai/ha",8 C %
same,Percent rice injury Cybonet,"[1]; 21 DAT, 50 g ai/ha",6 C %
same,Percent rice injury Cybonet,"[1]; 21 DAT, 62.5 g ai/ha",13 BC %
same,Percent rice injury Cybonet,"[1]; 21 DAT, 75 g ai/ha",32 ABC %
same,Percent rice injury Cybonet,"[1]; 21 DAT, 87.5 g ai/ha",44 AB %
same,Percent rice injury Cybonet,"[1]; 21 DAT, 100 g ai/ha",49 A %
same,Percent rice injury Cybonet,"[1]; 28 DAT, 12.5 g ai/ha",5 CD %
same,Percent rice injury Cybonet,"[1]; 28 DAT, 25 g ai/ha",7 CD %
same,Percent rice injury Cybonet,"[1]; 28 DAT, 37.5 g ai/ha",9 CD %
same,Percent rice injury Cybonet,"[1]; 28 DAT, 50 g ai/ha",7 CD %
same,Percent rice injury Cybonet,"[1]; 28 DAT, 62.5 g ai/ha",17 BCD %
same,Percent rice injury Cybonet,"[1]; 28 DAT, 75 g ai/ha",32 ABC %
same,Percent rice injury Cybonet,"[1]; 28 DAT, 87.5 g ai/ha",52 A %
same,Percent rice injury Cybonet,"[1]; 28 DAT, 100 g ai/ha",62 A %
same,Percent rice injury Jupiter,"[2]; 14 DAT, 12.5 g ai/ha",2 B %
same,Percent rice injury Jupiter,"[2]; 14 DAT, 25 g ai/ha",2 B %
same,Percent rice injury Jupiter,"[2]; 14 DAT, 37.5 g ai/ha",4 B %
same,Percent rice injury Jupiter,"[2]; 14 DAT, 50 g ai/ha",2 B %
same,Percent rice injury Jupiter,"[2]; 14 DAT, 62.5 g ai/ha",5 B %
same,Percent rice injury Jupiter,"[2]; 14 DAT, 75 g ai/ha",6 B %
same,Percent rice injury Jupiter,"[2]; 14 DAT, 87.5 g ai/ha",12 B %
same,Percent rice injury Jupiter,"[2]; 14 DAT, 100 g ai/ha",11 B %
same,Percent rice injury Jupiter,"[2]; 21 DAT, 12.5 g ai/ha",0 D %
same,Percent rice injury Jupiter,"[2]; 21 DAT, 25 g ai/ha",0 D %
same,Percent rice injury Jupiter,"[2]; 21 DAT, 37.5 g ai/ha",1 CD %
same,Percent rice injury Jupiter,"[2]; 21 DAT, 50 g ai/ha",3 CD %
same,Percent rice injury Jupiter,"[2]; 21 DAT, 62.5 g ai/ha",5 CD %
same,Percent rice injury Jupiter,"[2]; 21 DAT, 75 g ai/ha",13 BCD %
same,Percent rice injury Jupiter,"[2]; 21 DAT, 87.5 g ai/ha",22 BC %
same,Percent rice injury Jupiter,"[2]; 21 DAT, 100 g ai/ha",28 B %
same,Percent rice injury Jupiter,"[2]; 28 DAT, 12.5 g ai/ha",2 D %
same,Percent rice injury Jupiter,"[2]; 28 DAT, 25 g ai/ha",2 D %
same,Percent rice injury Jupiter,"[2]; 28 DAT, 37.5 g ai/ha",4 D %
same,Percent rice injury Jupiter,"[2]; 28 DAT, 50 g ai/ha",5 D %
same,Percent rice injury Jupiter,"[2]; 28 DAT, 62.5 g ai/ha",8 CD %
same,Percent rice injury Jupiter,"[2]; 28 DAT, 75 g ai/ha",20 BCD %
same,Percent rice injury Jupiter,"[2]; 28 DAT, 87.5 g ai/ha",44 B %
same,Percent rice injury Jupiter,"[2]; 28 DAT, 100 g ai/ha",41 BC %
same,Percent rice injury Taggart,"[3]; 14 DAT, 12.5 g ai/ha",4 B %
same,Percent rice injury Taggart,"[3]; 14 DAT, 25 g ai/ha",1 B %
same,Percent rice injury Taggart,"[3]; 14 DAT, 37.5 g ai/ha",4 B %
same,Percent rice injury Taggart,"[3]; 14 DAT, 50 g ai/ha",7 B %
same,Percent rice injury Taggart,"[3]; 14 DAT, 62.5 g ai/ha",12 B %
same,Percent rice injury Taggart,"[3]; 14 DAT, 75 g ai/ha",12 B %
same,Percent rice injury Taggart,"[3]; 14 DAT, 87.5 g ai/ha",19 B %
same,Percent rice injury Taggart,"[3]; 14 DAT, 100 g ai/ha",18 B %
same,Percent rice injury Taggart,"[3]; 21 DAT, 12.5 g ai/ha",1 D %
same,Percent rice injury Taggart,"[3]; 21 DAT, 25 g ai/ha",1 D %
same,Percent rice injury Taggart,"[3]; 21 DAT, 37.5 g ai/ha",1 D %
same,Percent rice injury Taggart,"[3]; 21 DAT, 50 g ai/ha",6 D %
same,Percent rice injury Taggart,"[3]; 21 DAT, 62.5 g ai/ha",10 CD %
same,Percent rice injury Taggart,"[3]; 21 DAT, 75 g ai/ha",25 BCD %
same,Percent rice injury Taggart,"[3]; 21 DAT, 87.5 g ai/ha",35 BC %
same,Percent rice injury Taggart,"[3]; 21 DAT, 100 g ai/ha",38 B %
same,Percent rice injury Taggart,"[3]; 28 DAT, 12.5 g ai/ha",2 C %
same,Percent rice injury Taggart,"[3]; 28 DAT, 25 g ai/ha",4 C %
same,Percent rice injury Taggart,"[3]; 28 DAT, 37.5 g ai/ha",4 C %
same,Percent rice injury Taggart,"[3]; 28 DAT, 50 g ai/ha",9 C %
same,Percent rice injury Taggart,"[3]; 28 DAT, 62.5 g ai/ha",9 C %
same,Percent rice injury Taggart,"[3]; 28 DAT, 75 g ai/ha",29 BC %
same,Percent rice injury Taggart,"[3]; 28 DAT, 87.5 g ai/ha",42 AB %
same,Percent rice injury Taggart,"[3]; 28 DAT, 100 g ai/ha",53 AB %
same,Percent red rice control,"red rice (Oryza sativa); 14 DAT, 12.5 g ai/ha",68 BC %
same,Percent red rice control,"red rice (Oryza sativa); 14 DAT, 25 g ai/ha",70 ABC %
same,Percent red rice control,"red rice (Oryza sativa); 14 DAT, 37.5 g ai/ha",78 AB %
same,Percent red rice control,"red rice (Oryza sativa); 14 DAT, 50 g ai/ha",81 AB %
same,Percent red rice control,"red rice (Oryza sativa); 14 DAT, 62.5 g ai/ha",81 AB %
same,Percent red rice control,"red rice (Oryza sativa); 14 DAT, 75 g ai/ha",84 A %
same,Percent red rice control,"red rice (Oryza sativa); 14 DAT, 87.5 g ai/ha",80 AB %
same,Percent red rice control,"red rice (Oryza sativa); 14 DAT, 100 g ai/ha",84 A %
same,Percent red rice control,"red rice (Oryza sativa); 21 DAT, 12.5 g ai/ha",91 A %
same,Percent red rice control,"red rice (Oryza sativa); 21 DAT, 25 g ai/ha",97 A %
same,Percent red rice control,"red rice (Oryza sativa); 21 DAT, 37.5 g ai/ha",98 A %
same,Percent red rice control,"red rice (Oryza sativa); 21 DAT, 50 g ai/ha",97 A %
same,Percent red rice control,"red rice (Oryza sativa); 21 DAT, 62.5 g ai/ha",97 A %
same,Percent red rice control,"red rice (Oryza sativa); 21 DAT, 75 g ai/ha",98 A %
same,Percent red rice control,"red rice (Oryza sativa); 21 DAT, 87.5 g ai/ha",98 A %
same,Percent red rice control,"red rice (Oryza sativa); 21 DAT, 100 g ai/ha",98 A %
same,Percent red rice control,"red rice (Oryza sativa); 28 DAT, 12.5 g ai/ha",93 A %
same,Percent red rice control,"red rice (Oryza sativa); 28 DAT, 25 g ai/ha",97 A %
same,Percent red rice control,"red rice (Oryza sativa); 28 DAT, 37.5 g ai/ha",100 A %
same,Percent red rice control,"red rice (Oryza sativa); 28 DAT, 50 g ai/ha",99 A %
same,Percent red rice control,"red rice (Oryza sativa); 28 DAT, 62.5 g ai/ha",99 A %
same,Percent red rice control,"red rice (Oryza sativa); 28 DAT, 75 g ai/ha",100 A %
same,Percent red rice control,"red rice (Oryza sativa); 28 DAT, 87.5 g ai/ha",98 A %
same,Percent red rice control,"red rice (Oryza sativa); 28 DAT, 100 g ai/ha",100 A %
same,% Rice Injury Rice Taggert,rice (Taggart variety); 6 g ai/ha,0%
same,% Rice Injury Rice Taggert,rice (Taggart variety); 12 g ai/ha,2%
same,% Rice Injury Rice Taggert,rice (Taggart variety); 25 g ai/ha,4%
same,% Rice Injury Rice Taggert,rice (Taggart variety); 50 g ai/ha,8%
same,% Rice Injury Rice Taggert,rice (Taggart variety); 100 g ai/ha,10%
same,% Rice Injury Rice Taggert,rice (Taggart variety); 200 g ai/ha,53%
same,"safety on white rice, Taggart",rice (Taggart variety); summary of Table 7 data,safe
same,% Rice Injury Rice Wells,rice (Wells variety); 6 g ai/ha,0%
same,% Rice Injury Rice Wells,rice (Wells variety); 12 g ai/ha,2%
same,% Rice Injury Rice Wells,rice (Wells variety); 25 g ai/ha,4%
same,% Rice Injury Rice Wells,rice (Wells variety); 50 g ai/ha,5%
same,% Rice Injury Rice Wells,rice (Wells variety); 100 g ai/ha,12%
same,% Rice Injury Rice Wells,rice (Wells variety); 200 g ai/ha,47%
same,"safety on white rice, Wells",rice (Wells variety); summary of Table 7 data,safe
same,"large crabgrass control (words, FIG. 2)",large crabgrass,controlled
